From patent publication US20200009143A1, “REPURPOSING OF CANCER DRUGS FOR TREATMENT OF MYCOBACTERIUM” (STC.UNM, priority 2016, published 2020)

Key:
[1] = test system: RAW 264.7 macrophages; details: PARP inhibition; cited from earlier work
[2] = test system: tuberculosis; details: systemically delivered, despite significant plasma levels; cited from earlier work
[3] = human, in vivo; cited from earlier work
[4] = target: PARP (Mus musculus, UniProt P11103); assay: whole cell PARP inhibition in UV-activated RAW 264.7 macrophages, PARP activity by ELISA; format: cell-based
PARP, sequence (P11103 2-1013): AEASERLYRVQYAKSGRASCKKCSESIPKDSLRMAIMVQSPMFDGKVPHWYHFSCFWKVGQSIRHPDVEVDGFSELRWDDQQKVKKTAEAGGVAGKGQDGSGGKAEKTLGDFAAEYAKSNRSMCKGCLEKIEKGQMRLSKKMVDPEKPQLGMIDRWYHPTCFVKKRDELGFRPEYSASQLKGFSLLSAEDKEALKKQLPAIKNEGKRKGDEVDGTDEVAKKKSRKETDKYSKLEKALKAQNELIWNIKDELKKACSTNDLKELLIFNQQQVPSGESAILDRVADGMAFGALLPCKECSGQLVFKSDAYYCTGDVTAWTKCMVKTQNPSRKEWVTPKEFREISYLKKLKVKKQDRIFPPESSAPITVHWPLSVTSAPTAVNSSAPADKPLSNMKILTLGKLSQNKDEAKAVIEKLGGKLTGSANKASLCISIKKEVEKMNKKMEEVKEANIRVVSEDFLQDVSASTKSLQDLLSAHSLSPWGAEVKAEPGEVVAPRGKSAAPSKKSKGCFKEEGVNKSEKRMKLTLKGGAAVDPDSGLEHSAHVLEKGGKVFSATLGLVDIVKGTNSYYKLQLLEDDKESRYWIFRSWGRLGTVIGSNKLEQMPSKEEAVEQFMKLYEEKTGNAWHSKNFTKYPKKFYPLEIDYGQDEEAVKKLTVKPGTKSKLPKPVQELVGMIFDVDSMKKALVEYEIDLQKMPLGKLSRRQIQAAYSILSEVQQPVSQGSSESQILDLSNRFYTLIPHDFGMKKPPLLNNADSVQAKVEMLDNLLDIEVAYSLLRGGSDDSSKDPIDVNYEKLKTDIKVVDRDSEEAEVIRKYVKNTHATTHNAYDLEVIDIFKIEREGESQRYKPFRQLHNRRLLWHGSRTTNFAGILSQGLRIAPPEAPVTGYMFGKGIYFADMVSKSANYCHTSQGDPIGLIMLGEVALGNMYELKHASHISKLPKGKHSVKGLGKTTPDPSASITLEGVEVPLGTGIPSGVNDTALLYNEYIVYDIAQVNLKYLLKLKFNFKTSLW

[5] = in vivo; cited from earlier work

Row | Structure (SMILES) | inhibition of mycobacteria-induced macrophage necrosis [1] | efficacy in vivo [2] | steady state peak plasma level [3] | PARP inhibition (in words) ([4]; at levels readily achieved during conventional PZA therapy) | ratio of plasma Cmax/IC50 ([4]; known peak plasma level in TB patients over whole-cell PARP IC50) | distribution in human granulomas [5]
1 | NC(=O)c1cccc(N)c1 [3-aminobenzamide] | strongly inhibited | – | – | – | – | –
2 | O=C(O)c1cnccn1 [POA, pyrazinoic acid] | – | ineffective | 300 µM | potent inhibitor | 20 | wide distribution
3 | NC(=O)c1cnccn1 [PZA, pyrazinamide] | – | – | about 500 μM | – | – | –
